Results: PMC4599007, “The GH130 Family of Mannoside Phosphorylases Contains Glycoside Hydrolases That Target β-1,2-Mannosidic Linkages in Candida Mannan” (The Journal of Biological Chemistry, 2015)

Biological target: T1, BT3780 (Bacteroides thetaiotaomicron, UniProt Q8A186)
T1 construct: gene BT_3780; signal peptide residues 1-16; residues 17-384 built in crystal (C-terminal Pro printed as 383); monomer
T1 sequence (Q8A186 17-383): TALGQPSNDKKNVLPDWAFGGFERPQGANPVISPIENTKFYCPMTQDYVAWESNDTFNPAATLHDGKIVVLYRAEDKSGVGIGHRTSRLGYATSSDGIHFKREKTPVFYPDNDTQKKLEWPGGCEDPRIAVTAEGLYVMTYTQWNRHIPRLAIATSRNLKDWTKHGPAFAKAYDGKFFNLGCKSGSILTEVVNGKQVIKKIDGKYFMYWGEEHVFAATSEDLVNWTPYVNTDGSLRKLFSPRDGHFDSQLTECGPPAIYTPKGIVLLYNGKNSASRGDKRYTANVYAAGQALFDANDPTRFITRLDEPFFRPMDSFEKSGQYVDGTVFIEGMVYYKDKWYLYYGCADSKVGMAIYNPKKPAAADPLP
Assay: X-ray crystal structure, […] Å
Format: binding
Settings: 0.3 M mannose in crystallisation; bound in -1 and +1 subsites of the active site

Q: For `OC[C@H]1OC(O)[C@@H](O)[C@@H](O)[C@@H]1O` (stereo partly shown) [mannose], which “X-ray crystal structure, 1.35 Å” value is on record?
A: The pocket houses two mannose residues (the crystal structure of BT3780 was obtained in the presence
